Assay [1] addresses T1, Epidermal growth factor receptor (Homo sapiens, UniProt P00533). In words: cell-based.
Assay [2] addresses Platelet-derived growth factor receptor beta (Homo sapiens, UniProt P09619). In words: Inhibition of PDGFRbeta.
Assay [3] concerns the target T2, Vascular endothelial growth factor receptor 2 (Homo sapiens, UniProt P35968). In words: cell-based.
In assay [4] the target is Vascular endothelial growth factor receptor 1 (Homo sapiens, UniProt P17948). Description: cell-based.
Vascular endothelial growth factor receptor 1, sequence (P17948 whole entry): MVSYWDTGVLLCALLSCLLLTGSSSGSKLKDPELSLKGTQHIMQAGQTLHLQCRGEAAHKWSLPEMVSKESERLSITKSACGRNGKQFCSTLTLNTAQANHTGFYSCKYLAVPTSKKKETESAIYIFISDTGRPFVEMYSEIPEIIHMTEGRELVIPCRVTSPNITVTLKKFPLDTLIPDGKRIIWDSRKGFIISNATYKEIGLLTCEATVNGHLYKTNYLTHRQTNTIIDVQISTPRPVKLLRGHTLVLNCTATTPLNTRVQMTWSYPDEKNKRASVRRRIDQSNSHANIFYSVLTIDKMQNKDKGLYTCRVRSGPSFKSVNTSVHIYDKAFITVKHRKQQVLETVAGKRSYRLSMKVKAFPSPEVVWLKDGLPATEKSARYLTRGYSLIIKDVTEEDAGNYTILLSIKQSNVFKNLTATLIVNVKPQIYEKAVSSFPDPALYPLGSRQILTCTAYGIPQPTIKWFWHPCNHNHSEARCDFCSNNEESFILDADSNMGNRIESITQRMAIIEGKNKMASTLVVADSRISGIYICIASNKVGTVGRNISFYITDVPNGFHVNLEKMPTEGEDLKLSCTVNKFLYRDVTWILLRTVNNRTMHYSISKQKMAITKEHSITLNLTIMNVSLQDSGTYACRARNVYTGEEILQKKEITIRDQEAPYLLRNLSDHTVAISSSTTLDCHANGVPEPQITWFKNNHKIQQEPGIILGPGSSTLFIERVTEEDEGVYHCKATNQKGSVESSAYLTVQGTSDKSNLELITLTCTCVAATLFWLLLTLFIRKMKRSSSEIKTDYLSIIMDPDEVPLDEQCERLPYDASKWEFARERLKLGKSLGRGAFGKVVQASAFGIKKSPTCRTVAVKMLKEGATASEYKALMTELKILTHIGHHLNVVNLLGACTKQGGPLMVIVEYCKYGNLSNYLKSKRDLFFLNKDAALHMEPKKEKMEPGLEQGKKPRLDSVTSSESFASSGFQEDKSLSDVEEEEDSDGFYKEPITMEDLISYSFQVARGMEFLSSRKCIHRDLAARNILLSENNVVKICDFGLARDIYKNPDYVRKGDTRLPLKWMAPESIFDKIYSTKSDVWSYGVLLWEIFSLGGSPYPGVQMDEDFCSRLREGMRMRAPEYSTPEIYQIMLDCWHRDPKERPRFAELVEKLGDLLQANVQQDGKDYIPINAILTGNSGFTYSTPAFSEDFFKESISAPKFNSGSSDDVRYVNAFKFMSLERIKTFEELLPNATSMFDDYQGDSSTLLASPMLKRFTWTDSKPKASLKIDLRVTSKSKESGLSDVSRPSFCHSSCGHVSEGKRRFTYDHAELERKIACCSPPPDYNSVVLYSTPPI
Another assay deals with A-431. In words: cells. To be noted: Homo sapiens.
For assay [5], the system named is chorioallantoic membrane (Gallus gallus). Description: cells. To be noted: Homo sapiens, A-431.
Assay [6] has as its target T1, Epidermal growth factor receptor.
In assay [7] the target is T2, Vascular endothelial growth factor receptor 2.

Platelet-derived growth factor receptor beta, sequence (P09619 whole entry): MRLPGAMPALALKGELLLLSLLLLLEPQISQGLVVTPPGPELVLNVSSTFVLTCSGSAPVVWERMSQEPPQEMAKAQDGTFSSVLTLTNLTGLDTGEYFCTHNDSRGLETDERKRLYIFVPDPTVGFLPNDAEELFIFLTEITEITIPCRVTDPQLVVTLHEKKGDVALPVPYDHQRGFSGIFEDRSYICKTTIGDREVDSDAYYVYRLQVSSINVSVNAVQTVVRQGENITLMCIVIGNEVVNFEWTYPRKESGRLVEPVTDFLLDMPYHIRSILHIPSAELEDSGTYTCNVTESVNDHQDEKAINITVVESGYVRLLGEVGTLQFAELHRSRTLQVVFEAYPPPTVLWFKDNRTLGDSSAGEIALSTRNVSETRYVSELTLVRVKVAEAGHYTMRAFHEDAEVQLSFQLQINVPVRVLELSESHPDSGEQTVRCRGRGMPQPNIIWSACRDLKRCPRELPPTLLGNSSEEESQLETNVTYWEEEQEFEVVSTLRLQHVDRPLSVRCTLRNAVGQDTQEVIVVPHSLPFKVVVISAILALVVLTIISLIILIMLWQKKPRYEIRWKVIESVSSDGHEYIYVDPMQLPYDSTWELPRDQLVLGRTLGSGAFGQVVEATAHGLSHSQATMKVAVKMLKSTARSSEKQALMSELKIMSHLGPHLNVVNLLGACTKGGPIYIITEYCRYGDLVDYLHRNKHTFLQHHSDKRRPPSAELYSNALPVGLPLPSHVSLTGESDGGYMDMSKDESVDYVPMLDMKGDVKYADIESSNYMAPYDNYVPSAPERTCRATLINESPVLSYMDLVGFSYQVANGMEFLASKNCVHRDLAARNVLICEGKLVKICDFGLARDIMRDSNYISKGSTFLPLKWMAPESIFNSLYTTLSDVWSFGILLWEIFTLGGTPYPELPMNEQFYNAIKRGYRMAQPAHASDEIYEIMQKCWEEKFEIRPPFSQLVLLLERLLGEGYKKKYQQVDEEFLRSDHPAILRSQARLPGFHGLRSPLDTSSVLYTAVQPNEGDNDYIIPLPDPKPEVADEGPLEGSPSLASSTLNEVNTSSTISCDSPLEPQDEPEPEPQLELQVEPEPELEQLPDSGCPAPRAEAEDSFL
T1 sequence (P00533 whole entry): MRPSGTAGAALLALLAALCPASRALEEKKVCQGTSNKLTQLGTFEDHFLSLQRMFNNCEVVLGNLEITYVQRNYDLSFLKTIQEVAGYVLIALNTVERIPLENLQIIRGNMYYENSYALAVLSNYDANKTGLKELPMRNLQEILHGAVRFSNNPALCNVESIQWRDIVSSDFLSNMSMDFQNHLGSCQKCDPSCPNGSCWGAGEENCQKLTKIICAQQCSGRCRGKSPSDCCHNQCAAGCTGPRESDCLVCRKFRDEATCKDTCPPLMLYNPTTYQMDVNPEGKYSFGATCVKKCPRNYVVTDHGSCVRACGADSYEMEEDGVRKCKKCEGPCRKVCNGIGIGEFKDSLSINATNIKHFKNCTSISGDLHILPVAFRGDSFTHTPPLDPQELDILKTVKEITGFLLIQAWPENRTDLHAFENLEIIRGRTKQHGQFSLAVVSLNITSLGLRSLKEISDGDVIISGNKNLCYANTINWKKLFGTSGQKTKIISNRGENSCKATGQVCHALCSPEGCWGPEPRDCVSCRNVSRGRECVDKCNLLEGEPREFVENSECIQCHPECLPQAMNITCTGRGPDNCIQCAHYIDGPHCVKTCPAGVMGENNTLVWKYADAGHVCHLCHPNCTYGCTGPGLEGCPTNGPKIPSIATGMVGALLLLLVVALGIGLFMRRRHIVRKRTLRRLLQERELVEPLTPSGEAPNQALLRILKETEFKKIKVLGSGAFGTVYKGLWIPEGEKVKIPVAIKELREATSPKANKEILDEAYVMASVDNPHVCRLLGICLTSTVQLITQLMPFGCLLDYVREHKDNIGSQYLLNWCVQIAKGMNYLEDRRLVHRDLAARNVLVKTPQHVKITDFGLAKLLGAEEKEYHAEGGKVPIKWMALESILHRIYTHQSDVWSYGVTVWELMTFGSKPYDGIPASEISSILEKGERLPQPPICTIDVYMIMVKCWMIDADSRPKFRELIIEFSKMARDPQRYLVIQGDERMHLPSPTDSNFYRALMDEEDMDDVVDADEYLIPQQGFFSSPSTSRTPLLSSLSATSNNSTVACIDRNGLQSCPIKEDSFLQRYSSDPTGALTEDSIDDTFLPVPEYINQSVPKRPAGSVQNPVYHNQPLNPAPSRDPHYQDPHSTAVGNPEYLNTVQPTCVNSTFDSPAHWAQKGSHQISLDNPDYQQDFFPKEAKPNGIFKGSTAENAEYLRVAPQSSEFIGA
T2 sequence (P35968 whole entry): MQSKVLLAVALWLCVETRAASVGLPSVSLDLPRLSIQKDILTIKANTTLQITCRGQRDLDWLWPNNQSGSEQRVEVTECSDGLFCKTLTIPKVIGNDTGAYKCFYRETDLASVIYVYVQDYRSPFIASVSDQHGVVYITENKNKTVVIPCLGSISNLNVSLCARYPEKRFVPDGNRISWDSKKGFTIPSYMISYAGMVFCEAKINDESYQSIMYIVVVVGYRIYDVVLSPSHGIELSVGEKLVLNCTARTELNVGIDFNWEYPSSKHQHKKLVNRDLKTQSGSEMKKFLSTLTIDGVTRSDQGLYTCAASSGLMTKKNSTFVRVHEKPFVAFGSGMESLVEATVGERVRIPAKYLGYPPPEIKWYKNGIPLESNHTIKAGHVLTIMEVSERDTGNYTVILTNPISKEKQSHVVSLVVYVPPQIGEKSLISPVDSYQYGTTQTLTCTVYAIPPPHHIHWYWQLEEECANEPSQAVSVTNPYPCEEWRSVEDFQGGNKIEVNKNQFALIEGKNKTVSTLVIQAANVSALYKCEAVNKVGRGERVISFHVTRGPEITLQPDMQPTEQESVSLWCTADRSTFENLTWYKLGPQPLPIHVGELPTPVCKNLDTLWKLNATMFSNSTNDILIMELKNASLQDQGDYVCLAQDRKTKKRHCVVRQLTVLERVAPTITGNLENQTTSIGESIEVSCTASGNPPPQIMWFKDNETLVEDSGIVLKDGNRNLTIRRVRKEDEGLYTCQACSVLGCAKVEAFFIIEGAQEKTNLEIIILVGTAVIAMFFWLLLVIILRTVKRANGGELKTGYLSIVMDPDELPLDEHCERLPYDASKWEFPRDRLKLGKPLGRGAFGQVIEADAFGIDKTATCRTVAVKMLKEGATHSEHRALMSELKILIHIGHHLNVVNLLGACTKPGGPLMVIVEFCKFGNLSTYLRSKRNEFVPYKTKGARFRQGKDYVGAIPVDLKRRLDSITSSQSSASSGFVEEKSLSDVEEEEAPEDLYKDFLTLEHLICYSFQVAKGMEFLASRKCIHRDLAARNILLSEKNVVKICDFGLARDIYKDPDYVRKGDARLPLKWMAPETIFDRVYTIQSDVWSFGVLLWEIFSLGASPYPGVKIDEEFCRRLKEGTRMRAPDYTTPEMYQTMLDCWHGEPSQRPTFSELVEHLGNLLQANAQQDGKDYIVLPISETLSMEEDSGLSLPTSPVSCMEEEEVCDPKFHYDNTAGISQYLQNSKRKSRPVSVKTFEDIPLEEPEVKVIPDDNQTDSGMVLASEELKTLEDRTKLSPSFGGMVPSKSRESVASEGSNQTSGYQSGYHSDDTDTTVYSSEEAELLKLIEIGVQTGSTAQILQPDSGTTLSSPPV

The IC50 is the concentration at which inhibition is half-maximal. High values mean a need for much substance, low ones inhibition by little substance. Take `Brc1cccc(Nc2ncnc3[nH]c(CCc4ccccc4)cc23)c1`: the IC50 was greater than 200 µM in assay [1]; 8.5 µM in assay [2]; 112 µM in assay [3]; 129 µM in assay [4]; greater than 500 µM in the assay on A-431.

Compound `Nc1nc(Nc2cccc(Br)c2)c2cc(CCc3ccccc3)[nH]c2n1` registered an IC50 in assay [5] of 19.5 µM.

Take `C#Cc1cccc(Nc2ncnc3[nH]c(CCc4ccccc4)cc23)c1`: the half-inhibitory concentration (IC50) is greater than 200 µM in assay [1]; greater than 500 µM in assay [2]; 49.4 µM in assay [3]; 142 µM in assay [4]; greater than 500 µM in the assay with A-431.

For `Fc1ccc(Nc2ncnc3[nH]c(CCc4ccccc4)cc23)cc1C(F)(F)F`, the IC50 in assay [1] is greater than 200 µM; in assay [2] it was greater than 500 µM; in assay [3] it was 57.5 µM; in assay [4] it was 164 µM; with A-431 it was greater than 500 µM.

Turning to `Fc1ccc(Nc2ncnc3[nH]c(CCc4ccccc4)cc23)cc1Br`, the concentration for half-maximal inhibition (IC50) in assay [1] is greater than 200 µM; in assay [2], 192 µM; in assay [3] it was 25.2 µM; in assay [4], greater than 200 µM; with A-431, greater than 500 µM.

With `c1ccc(CCc2cc3c(Nc4ccc5[nH]ccc5c4)ncnc3[nH]2)cc1`, the IC50 is 56.1 µM in assay [1], 104 µM in assay [2], 31.6 µM in assay [3] and 224 µM in assay [4].

Turning to `FC(F)(F)c1cccc(Nc2ncnc3[nH]c(CCc4ccccc4)cc23)c1`, the IC50 is greater than 200 µM in assay [1]; greater than 500 µM in assay [2]; 22.1 µM in assay [3]; greater than 200 µM in assay [4]; greater than 500 µM in the assay with A-431.

For `Fc1cc(Cl)ccc1Nc1ncnc2[nH]c(CCc3ccccc3)cc12`, the IC50 is greater than 200 µM in assay [1], greater than 500 µM in assay [2], 40.5 µM in assay [3] and greater than 200 µM in assay [4].

With `Nc1nc(Nc2ccc(F)c(Br)c2)c2cc(CCc3ccccc3)[nH]c2n1`, the figures for the IC50 in assay [6] and in assay [7] were 22.8 µM and 132 µM, respectively.

These data come from ChEMBL document CHEMBL1157122, “The contribution of a 2-amino group on receptor tyrosine kinase inhibition and antiangiogenic activity in 4-anilinosubstituted pyrrolo[2,3-d]pyrimidines” (Bioorg Med Chem Lett, 2010).
